Patent US9675614B2, “PRMT5 inhibitors and uses thereof” (Epizyme, Inc., priority 2012, dated 2017)

Biological target: PRMT5/MEP50 (Homo sapiens (Human), UniProt O14744)
Assay: PRMT5 Biochemical Assay (PRMT5/MEP50 enzyme assay on peptide substrate, 3H-SAM Flashplate)
Settings: PRMT5/MEP50 biochemical assay; read-out: Biochemical IC50

PRMT5/MEP50, sequence (O14744 other isoform, or with tags, fused parts or gaps): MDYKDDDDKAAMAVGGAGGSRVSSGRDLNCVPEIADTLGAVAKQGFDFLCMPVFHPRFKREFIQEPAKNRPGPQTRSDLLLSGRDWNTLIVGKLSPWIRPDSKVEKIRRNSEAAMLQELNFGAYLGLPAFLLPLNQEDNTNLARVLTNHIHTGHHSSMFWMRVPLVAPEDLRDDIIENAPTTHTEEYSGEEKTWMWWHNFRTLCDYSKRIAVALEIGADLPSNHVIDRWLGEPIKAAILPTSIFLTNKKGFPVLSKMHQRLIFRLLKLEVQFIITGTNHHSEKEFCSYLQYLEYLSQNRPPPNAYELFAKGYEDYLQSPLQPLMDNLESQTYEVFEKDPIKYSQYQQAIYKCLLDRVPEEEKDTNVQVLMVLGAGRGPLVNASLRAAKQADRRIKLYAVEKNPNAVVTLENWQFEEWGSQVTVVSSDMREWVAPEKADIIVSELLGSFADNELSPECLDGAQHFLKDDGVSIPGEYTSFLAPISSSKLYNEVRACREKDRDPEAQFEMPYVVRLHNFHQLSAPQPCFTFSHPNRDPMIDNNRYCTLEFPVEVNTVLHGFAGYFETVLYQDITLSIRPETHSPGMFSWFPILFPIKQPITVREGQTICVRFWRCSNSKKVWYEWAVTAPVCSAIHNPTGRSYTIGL
PRMT5/MEP50, sequence (Q9BQA1 other isoform, or with tags, fused parts or gaps partner): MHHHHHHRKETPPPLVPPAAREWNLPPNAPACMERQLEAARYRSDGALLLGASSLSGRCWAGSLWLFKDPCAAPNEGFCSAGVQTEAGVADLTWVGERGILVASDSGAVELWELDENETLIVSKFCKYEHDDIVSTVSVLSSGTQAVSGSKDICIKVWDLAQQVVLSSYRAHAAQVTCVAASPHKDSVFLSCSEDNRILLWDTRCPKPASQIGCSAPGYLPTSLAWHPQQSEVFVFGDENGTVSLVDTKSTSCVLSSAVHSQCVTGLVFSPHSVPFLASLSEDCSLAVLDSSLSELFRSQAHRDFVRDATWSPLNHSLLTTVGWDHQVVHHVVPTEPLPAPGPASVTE

| Structure (SMILES) | IC50 [nM] |
| --- | --- |
| CC(=O)N1CC(Nc2cc(C(=O)NC[C@H](O)CN3CCc4ccccc4C3)ncn2)C1 [Compound 284, (S)-6-((1-acetylazetidin-3-yl)amino)-N-(3-(3,4-dihydroisoquinolin-2(1H)-yl)-2-hydroxypropyl)pyrimidine-4-carboxamide] | < 100 |
| CC(=O)N1CCC(Nc2cncc(C(=O)NC[C@H](O)CN3CCc4ccccc4C3)c2)CC1 [Compound 302] | < 100 |
| O=C(NCC(O)CN1CCc2ccccc2C1)c1ccc(NC2CCNCC2)cc1 (centres unmarked) [Compound 138] | < 100 |
| O=C(NC[C@@H](O)CN1CCc2ccccc2C1)c1cccc(NC2CCOCC2)c1 [Compound 43] | 101 to 1000 |
| O=C(NCC(O)CN1CCc2ccccc2C1)c1ccc(NC2CCN(CC(F)(F)F)CC2)cc1 (centres unmarked) [Compound 128] | < 100 |
| CS(=O)(=O)N1CCC(Nc2cccc(C(=O)NC[C@H](O)CN3CCc4ccccc4C3)c2)CC1 [Compound 216] | < 100 |
| O=C(NC[C@H](O)CN1CCc2ccccc2C1)c1ccc2ncsc2c1 [Compound 273] | < 100 |
| CN1CCC(Oc2cncc(C(=O)NC[C@H](O)CN3CCc4ccccc4C3)c2)CC1 [Compound 288] | < 100 |
| CN(CCOc1cccc(C(=O)NCC(O)CN2CCc3ccccc3C2)c1)CC(N)=O (centres unmarked) [Compound 277] | < 100 |
| CC(=O)N1CCC(Nc2cc(C(=O)NC[C@H](O)CN3CCc4ccccc4C3)ncn2)C1 (some centres unmarked) [Compound 210] | < 100 |
| CC(C)(C)C(=O)N1CCC(Oc2ccc(C(=O)NC[C@H](O)CN3CCc4ccccc4C3)cc2)CC1 [Compound 322] | < 100 |
| CCN1CCN(Cc2cccc(C(=O)NCC(O)CN3CCc4ccccc4C3)c2)CC1 (centres unmarked) [Compound 90] | < 100 |
| O=C(NCC(O)CN1CCc2ccccc2C1)c1cccc(NC2CCCOC2)c1 (centres unmarked) [Compound 60] | 101 to 1000 |
| CC1=NN(c2ccc(C(=O)NCC(O)CN3CCc4ccccc4C3)cc2)C(=O)C1 (centres unmarked) [Compound 86] | 101 to 1000 |
| CN1CCC(Nc2cc(C(=O)NC[C@H](O)CN3CCc4ccccc4C3)ccn2)C1 (some centres unmarked) [Compound 255] | < 100 |
| CN1CCN(Cc2cccc(C(=O)NCC(O)CN3CCc4ccccc4C3)c2)CC1CO (centres unmarked) [Compound 253] | < 100 |
| CC(C)N1CCC(Oc2ccc(C(=O)NCC(O)CN3CCc4ccccc4C3)cc2)CC1 (centres unmarked) [Compound 106] | < 100 |
| CN(CC(N)=O)Cc1cccc(C(=O)NCC(O)CN2CCc3ccccc3C2)c1 (centres unmarked) [Compound 195] | < 100 |
| CC(C)N1CCC(Nc2ccc(C(=O)NCC(O)CN3CCc4ccccc4C3)cc2)CC1 (centres unmarked) [Compound 140] | < 100 |
| CC(=O)N1CC[C@H](Nc2cccc(C(=O)NC[C@H](O)CN3CCc4ccccc4C3)c2)C1 [Compound 266] | < 100 |
| COc1ccc2cc(C(=O)NCC(O)CN3CCc4ccccc4C3)ccc2n1 (centres unmarked) [Compound 155] | 101 to 1000 |
| O=C(NCC(O)CN1CCc2ccccc2C1)c1ccc(NC2CCOCC2)cc1 (centres unmarked) [Compound 66] | < 100 |
| CN(CC(O)CN1CCc2ccccc2C1)C(=O)c1cccc(NC2CCOCC2)c1 (centres unmarked) [Compound 71] | 101 to 1000 |
| O=C(O)CN1CCN(Cc2cccc(C(=O)NCC(O)CN3CCc4ccccc4C3)c2)CC1 (centres unmarked) [Compound 157] | 101 to 1000 |
| CC(=O)N1CCC(Nc2cc(C(=O)NC[C@H](O)CN3CCc4ccccc4C3)ccn2)C1 (some centres unmarked) [Compound 228] | < 100 |
| O=C(NCC(O)CN1CCc2ccccc2C1)c1cc(Cl)cc(NC2CCOCC2)c1 (centres unmarked) [Compound 64] | < 100 |
| O=C(NC[C@H](O)CN1CCc2ccccc2C1)c1ccc2ncccc2c1 [Compound 220] | < 100 |

| Structure (SMILES) | IC50 [nM] |
| --- | --- |
| C[C@@H]1CC(Nc2cccc(C(=O)NC[C@H](O)CN3CCc4ccccc4C3)c2)CCO1 (some centres unmarked) [Compound 168] | < 100 |
| CC(C)(C)c1cc(Nc2cc(C(=O)NC[C@H](O)CN3CCc4ccccc4C3)ccn2)n[nH]1 [Compound 326] | < 100 |
| O=C(NCC(O)CN1CCc2ccccc2C1)c1cncc(NC2CCOCC2)n1 (centres unmarked) [Compound 75] | 101 to 1000 |
| O=C(NC[C@H](O)CN1CCc2ccccc2C1)c1ccc2c(c1)CCCC2 [Compound 247] | < 100 |
| Cc1ccc(NC2CCOC2)cc1C(=O)NCC(O)CN1CCc2ccccc2C1 (centres unmarked) [Compound 96] | < 100 |
| CN(C)C(=O)CN1CCN(Cc2cccc(C(=O)NCC(O)CN3CCc4ccccc4C3)c2)CC1 (centres unmarked) [Compound 174] | < 100 |
| O=C(NC[C@H](O)CN1CCc2ccccc2C1)Nc1ccccc1 [Compound 5] | 101 to 1000 |
| NC(=O)CNCc1cccc(C(=O)NCC(O)CN2CCc3ccccc3C2)c1 (centres unmarked) [Compound 116] | 101 to 1000 |
| O=C(NCC(O)CN1CCc2ccccc2C1)c1cccc(N2CCS(=O)(=O)CC2)c1 (centres unmarked) [Compound 164] | < 100 |
| O=C(NC[C@H](O)CN1CCc2ccccc2C1)c1cncc(OC2CCOCC2)c1 [Compound 183] | < 100 |
| O=C(NC[C@H](O)CN1CCc2ccccc2C1)c1cncc(NC2CCOCC2)c1 [Compound 298] | < 100 |
| CNC(=O)CN1CCN(Cc2cccc(C(=O)NCC(O)CN3CCc4ccccc4C3)c2)CC1 (centres unmarked) [Compound 173] | < 100 |
| CC(C)N1CCC(Nc2cccc(C(=O)NCC(O)CN3CCc4ccccc4C3)c2)C1 (centres unmarked) [Compound 101] | < 100 |
| O=C(NC[C@H](O)CN1CCc2ccccc2C1)c1ccnc(NCc2ccccn2)c1 [Compound 191] | < 100 |
| O=C(NCC(O)CN1CCc2ccccc2C1)c1cccc(CN2CCN(CC(F)(F)F)CC2)c1 (centres unmarked) [Compound 92] | < 100 |
| O=C(NC[C@H](O)CN1CCc2ccccc2C1)c1ccc(OC2CCN(Cc3ccccc3)CC2)cc1 [Compound 330] | < 100 |
| O=C(NC[C@@H](O)CN1CCc2ccccc2C1)c1ccccc1 [Compound 4] | 1000 to 10000 |
| CN(C[C@H](O)CN1CCc2ccccc2C1)C(=O)c1cccc(NC2CCOCC2)c1 [Compound 111] | < 100 |
| CC(=O)N1CCC(Oc2ccc(C(=O)NCC(O)CN3CCc4ccccc4C3)cc2)C1 (centres unmarked) [Compound 197] | < 100 |
| CC(=O)N1CCN(Cc2cccc(C(=O)NCC(O)CN3CCc4ccccc4C3)c2)CC1 (centres unmarked) [Compound 100] | < 100 |
| O=C(NC[C@H](O)CN1CCc2ccccc2C1)c1cccc(-c2ccccn2)c1 [Compound 20] | < 100 |
| O=C(NCC(O)CN1CCc2ccccc2C1)c1cccc(NC2CCNCC2)c1 (centres unmarked) [Compound 94] | < 100 |
| CN1CCC(c2cccc(C(=O)NCC(O)CN3CCc4ccccc4C3)c2)C1 (centres unmarked) [Compound 38, N-(3-(3,4-dihydroisoquinolin-2(1H)-yl)-2-hydroxypropyl)-3-(1-methylpyrrolidin-3-yl)benzamide] | < 100 |
| O=C(NCC(O)CN1CCc2ccccc2C1)c1cccc(CC2CCOCC2)c1 (centres unmarked) [Compound 59] | < 100 |
| O=C(NC[C@H](O)CN1CCc2ccccc2C1)c1ccccc1 [Compound 3, (S)—N-(3-(3,4-dihydroisoquinolin-2(1H)-yl)-2-hydroxypropyl)benzamide] | < 100 |
| COCCCOc1ccc(C(=O)NCC(O)CN2CCc3ccccc3C2)cc1 (centres unmarked) [Compound 146] | < 100 |
| Cn1nccc1Nc1cc(C(=O)NC[C@H](O)CN2CCc3ccccc3C2)ccn1 [Compound 325] | < 100 |

| Structure (SMILES) | IC50 [nM] |
| --- | --- |
| COc1cc(CN2CCN(C)CC2)cc(C(=O)NCC(O)CN2CCc3ccccc3C2)c1 (centres unmarked) [Compound 160] | < 100 |
| O=C(NC[C@H](O)CN1CCc2ccccc2C1)c1ccc2c(c1)CCO2 [Compound 243] | < 100 |
| O=C(NC[C@H](O)CN1CCc2ccccc2C1)c1ccnc(NCC2CNCCO2)c1 (some centres unmarked) [Compound 238] | < 100 |
| O=C(NCC(O)CN1CCc2ccccc2C1)c1cccc(C2CCOC2)c1 (centres unmarked) [Compound 154] | < 100 |
| O=C(NCC(O)CN1CCc2ccccc2C1)c1ncc[nH]1 (centres unmarked) [Compound 170] | 101 to 1000 |
| CC(=O)NCCN1CCN(Cc2cccc(C(=O)NCC(O)CN3CCc4ccccc4C3)c2)CC1 (centres unmarked) [Compound 156] | < 100 |
| COc1ccc2oc(C(=O)NC[C@H](O)CN3CCc4ccccc4C3)cc2c1 [Compound 250] | < 100 |
| O=C(NC[C@H](O)CN1CCc2ccccc2C1)c1cnc2ccccc2c1 [Compound 317] | < 100 |
| CS(=O)(=O)N1CCC(Nc2ccc(C(=O)NCC(O)CN3CCc4ccccc4C3)cc2)CC1 (centres unmarked) [Compound 141] | < 100 |
| Cn1nc(C(=O)NCC(O)CN2CCc3ccccc3C2)cc1NC1CCOCC1 (centres unmarked) [Compound 312] | 101 to 1000 |
| CS(=O)(=O)N1CCC(Oc2ccc(C(=O)NCC(O)CN3CCc4ccccc4C3)cc2)CC1 (centres unmarked) [Compound 108] | < 100 |
| CS(=O)(=O)N1CC(Nc2cc(C(=O)NC[C@H](O)CN3CCc4ccccc4C3)ccn2)C1 [Compound 278] | < 100 |
| CN1CCC(N(C)c2cccc(C(=O)NCC(O)CN3CCc4ccccc4C3)c2)C1 (centres unmarked) [Compound 132] | < 100 |
| CN1CCC(Nc2ccc(C(=O)NCC(O)CN3CCc4ccccc4C3)cc2)CC1 (centres unmarked) [Compound 139] | < 100 |
| CS(=O)(=O)N1CCC(Nc2cc(C(=O)NC[C@H](O)CN3CCc4ccccc4C3)ncn2)CC1 [Compound 297] | < 100 |
| O=C(NCC(O)CN1CCc2ccccc2C1)c1cc(NC2CCOCC2)n[nH]1 (centres unmarked) [Compound 169] | < 100 |
| O=C(NC[C@H](O)CN1CCc2ccccc2C1)c1ccnc(NC2CCN(CC(F)(F)F)CC2)c1 [Compound 224] | < 100 |
| CS(=O)(=O)N1CCC(Oc2cc(C(=O)NC[C@H](O)CN3CCc4ccccc4C3)ncn2)CC1 [Compound 286] | < 100 |
| CC(=O)N1CCC(Oc2cc(C(=O)NC[C@H](O)CN3CCc4ccccc4C3)ncn2)CC1 [Compound 287] | < 100 |
| O=C(NC[C@H](O)CN1CCc2ccccc2C1)c1cncc(NC2COC2)c1 [Compound 299] | < 100 |
| CN(CCN(C)S(C)(=O)=O)c1cc(C(=O)NC[C@H](O)CN2CCc3ccccc3C2)ccn1 [Compound 263] | < 100 |
| COc1ccc(C(=O)NCC(O)CN2CCc3ccccc3C2)cc1NC1CCOCC1 (centres unmarked) [Compound 67] | 101 to 1000 |
| O=C(NCC(O)CN1CCc2ccccc2C1)c1cccc(NCCCO)c1 (centres unmarked) [Compound 87] | 1000 to 10000 |
| CN1CCC(Nc2cc(C(=O)NC[C@H](O)CN3CCc4ccccc4C3)ccn2)CC1 [Compound 223] | < 100 |
| O=C(NC[C@H](O)CN1CCc2ccccc2C1)c1cccc2[nH]cnc12 [Compound 241] | < 100 |
| O=C(NC[C@H](O)CN1CCc2ccccc2C1)c1cc(NC2CCOCC2)ncn1 [Compound 193] | < 100 |
